Experimental findings from the supplement of paper PMC10307832 are described below.

Common to all, as to experiment: relative viability (nuclei count vs DMSO), 5 days (fraction); higher = more cells survive
Compound in the assay “ALW-II-49-7 + Trametinib”: Cc1ccc(C(=O)Nc2cccc(C(F)(F)F)c2)cc1Nc1cncc(C(N)=O)c1 [ALW-II-49-7] + CC(=O)Nc1cccc(-n2c(=O)n(C3CC3)c(=O)c3c(Nc4ccc(I)cc4F)n(C)c(=O)c(C)c32)c1 [Trametinib] (partner 0.02 µM)
In outline: (§1)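 Dosing by pin tool came one day after lung cancer cell lines were seeded in 1536-well plates, using either one drug or a fixed anchor-drug dose plus five library-drug doses (not always all listed) in √10 steps. After 5 days, nuclei were counted on 4× images. Relative viability is treated-well nuclei count divided by vehicle-well nuclei count, and values are medians of duplicate plates.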

Compound in the assay “ALW-II-49-7 + Luminespib”: Cc1ccc(C(=O)Nc2cccc(C(F)(F)F)c2)cc1Nc1cncc(C(N)=O)c1 [ALW-II-49-7] + CCNC(=O)c1noc(-c2cc(C(C)C)c(O)cc2O)c1-c1ccc(CN2CCOCC2)cc1 [Luminespib] (partner 0.01 µM)
An outline of the steps: as §1

Compound in the assay “ALW-II-49-7 + Pemetrexed”: Cc1ccc(C(=O)Nc2cccc(C(F)(F)F)c2)cc1Nc1cncc(C(N)=O)c1 [ALW-II-49-7] + Nc1nc2[nH]cc(CCc3ccc(C(=O)N[C@@H](CCC(=O)O)C(=O)O)cc3)c2c(=O)[nH]1 [Pemetrexed] (partner 0.2 µM)
In outline:
as §1

Compound in the assay “Dasatinib + Vorinostat”: Cc1nc(Nc2ncc(C(=O)Nc3c(C)cccc3Cl)s2)cc(N2CCN(CCO)CC2)n1 [Dasatinib] + O=C(CCCCCCC(=O)Nc1ccccc1)NO [Vorinostat] (partner 1 µM)
An outline of the steps: as §1

As to UMC-11, the relative viability with ALW-II-49-7 + Trametinib (first compound 0.08 µM) came out at 0.791; with ALW-II-49-7 + Trametinib (first compound 0.253 µM), 0.69; in the assay with ALW-II-49-7 + Trametinib (first compound 0.8 µM), 0.896; with ALW-II-49-7 + Trametinib (first compound 2.53 µM), 0.821; with ALW-II-49-7 + Trametinib (first compound 8 µM) it was 0.599; with ALW-II-49-7 + Luminespib (first compound 0.08 µM) it was 1.19. Moreover, the relative viability was determined as 0.939 in the assay with ALW-II-49-7 + Luminespib (first compound 0.253 µM); 1.14 in the assay with ALW-II-49-7 + Luminespib (first compound 0.8 µM); 0.983 with ALW-II-49-7 + Luminespib (first compound 2.53 µM); 1 in the assay with ALW-II-49-7 + Luminespib (first compound 8 µM); 0.856 in the assay with ALW-II-49-7 + Pemetrexed (first compound 0.08 µM); 0.79 with ALW-II-49-7 + Pemetrexed (first compound 0.253 µM). Besides, the relative viability was determined as 0.76 with ALW-II-49-7 + Pemetrexed (first compound 0.8 µM); 0.803 with ALW-II-49-7 + Pemetrexed (first compound 2.53 µM); 0.705 with ALW-II-49-7 + Pemetrexed (first compound 8 µM); 0.409 with Dasatinib + Vorinostat (first compound 0.005 µM); 0.289 with Dasatinib + Vorinostat (first compound 0.01581 µM); 0.315 with Dasatinib + Vorinostat (first compound 0.05 µM). The relative viability with Dasatinib + Vorinostat (first compound 0.1581 µM) was 0.203; with Dasatinib + Vorinostat (first compound 0.5 µM) it was 0.218.
